We go through 3 compounds from US10004723B2, “Aromatase inhibitor-releasing intravaginal device” (University of Saskatchewan, priority 2013, dated 2018).

Marks after values point to notes of the source that are not given here.

The test system of series [1] is MCF-7 cancer cell preparations. To be noted: reported (Kudoh 1996; Bhatnagar 2007), read-out: half maximal inhibitory concentration (IC50); cited from earlier work.
In a further series the test system is bovine granulosa cells. In words: Inhibition of estradiol production in bovine granulosa cell culture. The series is classed as cell-based. To be noted: for concentration of estradiol compared with negative control (no FSH stimulation): letrozole 20 and 2 ng/mL, anastrozole 200 and 20 ng/mL, FSH-stimulated cells. On the procedure:
Inhibition of estradiol production by two aromatase inhibitors (letrozole and anastrozole) and a benzimidazole (fenbendazole) was tested in vitro using a bovine granulosa cell culture.
The granulosa cell culture protocol has been described previously (Zamberlam, Portela et al., 2011). Briefly, bovine ovaries were obtained at a local abattoir and transported to the lab where granulosa cells of antral follicles were collected by rinsing the follicle wall with Dulbecco's Modified Eagle Medium Nutrient Mixture F-12 (DMEMIF12, Invitrogen Life Technologies, Burlington, ON, Canada). Granullosa cells were maintained in culture for 6 days at 37° C. in 5% CO2, in 700 uL of culture medium (Zamberlam, Portela et al., 2011) which was replaced every 2 days. Cells were maintained in culture from Days 0 to 2, followed by the addition of 1 ng/mL of FSH from Days 2 to 4. On Day 4, depending on the treatment group, the culture medium was supplemented with 1 ng/mL FSH plus the estrogen inhibitor of interest, with FSH alone (positive control) or no FSH (negative control). On Day 6, the culture medium was collected and total protein was measured by the Bradford method (Bio-Rad, Mississauga, ON, Canada). Estradiol levels were determined by radioimmunoassay and expressed as total pg of estradiol per ug of protein.
Three different levels of each compound were tested. The standard concentration used for letrozole was 20 ng/mL. […] The standard dose of fenbendazole was based on a reported maximum concentration 160 ng/mL fenbendazole in plasma after a single oral administration of 7.5 mg/kg of body weight in cattle (Sanyal, 1994). Low and high doses of each aromatase inhibitor were arbitrarily set at standard concentration× 1/10 and standard concentration×10, respectively (Table 1).

The conditions of series [2]: single oral administration of 7.5 mg/kg of body weight in cattle (Sanyal, 1994); cited from earlier work.
In series [3] the test system is ovulation. Put plainly: Inhibition of ovulation in cattle. The series is classed as in vivo. The conditions noted are these: treatment during the pre-ovulatory wave in cattle.
Series [4] deals with ovarian function in heifers. Put plainly: Example III: ovarian function and ovulation synchrony after letrozole device plus PGF and GnRH in heifers. Also noted: Degree of synchrony (residuals of the interval from GnRH to ovulation): unit not given here. The series is classed as in vivo, cattle. The conditions noted are these: for Dominant follicle diameter (mm) at day before ovulation: GnRH 24 h later, mean ± SEM; for Ovulation failure / Ovulation in relation to GnRH: Before / Ovulation in relation to GnRH: Synchronized: number of heifers. From the text: (§1) Heifers were examined daily by transrectal ultrasonography to determined the interval to ovulation, which served as control data for comparison with the synchronizing effect of subsequent aromatase inhibitor treatment in the same animals. One heifer was excluded for further use due to aggressive behaviour and handling difficulty. At the time of ovulation (Day 0), heifers were assigned randomly to five groups (n=8-10/group) and given an intravaginal device with a wax-based plus gel coat formulation containing 3 g of letrozole (as described in Example 1) for 4 days starting on Day 0, 4, 8, 12, or 16. At the time of device removal, heifers were given 500 μg PGF followed by 100 μg of GnRH 24 h later (FIG. 10).
Ultrasound examinations were performed daily from two days before device insertion to 9 days after post-treatment ovulation. Observations from ultrasound examinations were recorded on a sketch sheet in which each ovary and its structures (CL and follicles a 4 mm in diameter) were represented by size and location. Ovulation was defined as the disappearance of a […] between successive examinations after GnRH treatment, and was confirmed by the subsequent detection of a CL [20]. The time of follicular wave emergence was defined as the day of ovulation, or retrospectively as the day when the dominant follicle was first identified at a diameter of 4 to 5 mm. If the dominant follicle was not identified until it reached 6 or 7 mm, the previous day was considered day of wave emergence. The dominant follicle of a wave was defined as the largest antral follicle of the wave. The day of onset of follicular and luteal regression was defined as the first day of an apparent progressive decrease in follicular and luteal diameters, respectively.
Statistical analyses were done using the Statistical Analysis System software package (SAS Learning Edition 9.1, 2006; SAS Institute Inc., Cary, N.C., USA). Time-series hormone data and follicular diameter profiles were analyzed by analysis of variance for repeated measures using the PROC MIXED procedure to determine the effects of day of treatment (0, 4, 8, 12, and 16), time, and their interactions. Individual time-point comparisons among groups were compared using the least significant difference (LSD) test. Single-point measurements (dominant follicle diameter at device insertion, pre-ovulatory follicle diameter, CL diameter 9 days after the post-treatment ovulation and interval from GnRH treatment to ovulation) were analyzed by one-way analysis of variance. The proportion of heifers that ovulated were compared by Chi-Square test. The degree of synchrony among groups was compared by analysis of variance of the residuals of the interval from GnRH to ovulation. Significance was defined as P≤0.05.

In series [5] the test system is MCF-7 cancer cell preparations. In words: Reported IC50 in MCF-7 cancer cell preparations. Also on record: species or system human. To be noted: based on the reported IC50 values.
For series [6], the system named is ovulation. In words: Induction of ovulation in women. The series is classed as in vivo, human. To be noted: women treated at 18 mm follicle diameter.
The subject of a further series is plasma estradiol. In words: Example III: plasma estradiol at device removal in heifers. The series is classed as in vivo, cattle.
From the text: as §1, with “One heifer was excluded for further use due to aggressive behaviour and handling difficulty.” left out
Blood samples were collected by coccygeal venipuncture into 10 mL heparinized vacuum tubes (Becton Dickinson Vacutainer Systems, Franklin Lakes, N.J., USA). Samples were collected at the time of device removal for estradiol measurement, and at 3, 6 and 9 days following the post-treatment ovulation to determine progesterone concentrations: Additionally, blood samples were collected on Days 4, 8, 12, and 16 from heifers included in Group 16 (Day 0=ovulation) to serve as control data for comparison of estradiol concentrations at the time of device removal in other treatment groups (Groups 0, 4, 8, and 12). […] Blood samples were centrifuged at 1500×g for 20 min and plasma was separated and stored in plastic tubes at −20° C. until assayed.
Plasma concentrations of estradiol were determined using a commercial radioimmunoassay kit (Double Antibody Estradiol; Diagnostic Products, Los Angeles, Calif., USA). The procedure was carried out in the Department of Animal Health and Biomedical Sciences, University of Wisconsin-Madison, as described, with the following modifications: Standards (0.78-100 pg/mL) were prepared in steroid-free (charcoal-treated) bovine plasma. The standards (250 μL in duplicate) and plasma samples (500 μL in duplicate) were extracted with 3 mL of diethyl ether, frozen in a dry-ice/methanol bath, decanted into assay tubes, and dried overnight under a fume hood. The dried samples and standards were re-suspended with 100 μL of assay buffer (0.1% gelatin in PBS).

Setting [7] is: letrozole groups combined, letrozole device added to PGF-GnRH protocol.

Consider `CC(C)(C#N)c1cc(Cn2cncn2)cc(C(C)(C)C#N)c1` [Anastrozole, anastrozole], for which, in series [1], the IC50 is 0.82 nM. Further, in the series on bovine granulosa cells, the “dose at which estradiol synthesis was reduced to that of non-FSH-stimulated cells” value is on record as 200 ng/mL and the “concentration of estradiol compared with negative control (no FSH stimulation)” value is reported as “did not differ from that of the negative control”.

`COC(=O)Nc1nc2ccc(Sc3ccccc3)cc2[nH]1` [Fenbendazole, fenbendazole]: the “maximum concentration in plasma” value in series [2] is given as 160 ng/mL. In addition, the “reduction of estradiol secretion by FSH-stimulated granulosa cells” value with bovine granulosa cells (at the levels tested) was “did not reduce estradiol secretion significantly”.

In the series with ovulation [3], `N#Cc1ccc(C(c2ccc(C#N)cc2)n2cncn2)cc1` [Letrozole, letrozole] returned a delay of ovulation of 24 h. Moreover, the “Dominant follicle diameter (mm) at day before ovulation” value in series [4] (3 g letrozole device 4 days from Day 0, PGF at removal) is 12.8 ± 0.58^a mm; in series [4] (3 g letrozole device 4 days from Day 4, PGF at removal), 16.4 ± 0.78^b mm; in series [4] (3 g letrozole device 4 days from Day 8, PGF at removal), 14.5 ± 0.83^ab mm; in series [4] (3 g letrozole device 4 days from Day 12, PGF at removal), 14.2 ± 0.48^ab mm; in series [4] (3 g letrozole device 4 days from Day 16, PGF at removal), 11.7 ± 0.59^a mm. In addition, the “heifers with CL of normal diameter at last observation (percent)” value in series [4] (9 days post-letrozole treatment ovulation) worked out at 62.5%. Also, the “Days from GnRH treatment to ovulation” value in series [4] (Letrozole groups combined) was 1.9 ± 0.08 days. For the same compound, the “Degree of synchrony (residuals of the interval from GnRH to ovulation)” value in series [4] (Letrozole groups combined) was found to be 0.24 ± 0.07. The “Ovulation failure (percent)” value in series [4] (Letrozole groups combined) was 6%. The “Ovulation in relation to GnRH: Before (percent)” value in series [4] (Letrozole groups combined) turned out to be 12%. In addition, the “Ovulation in relation to GnRH: Synchronized (percent)” value in series [4] (Letrozole groups combined) was determined as 81%. Further, in series [4] (by 9 days after ovulation), the “heifers that underwent luteolysis prior to the last observation (percent)” value was 37.5%. Besides, in series [4] (by 9 days after ovulation, number of 48 heifers), the “heifers that underwent luteolysis prior to the last observation” value turned out to be 18. In addition, the “Proportion that ovulated (heifers/treated)” value in series [4] (setting [7]) is reported as 42/48. Also, the “Proportion that ovulated (percent)” value in series [4] (setting [7]) amounted to 87.1%. Moreover, the Ovulation failure in series [4] (Letrozole groups combined) came to 3; in series [4] (treatment initiated on Day 0), 0; in series [4] (treatment initiated on Day 4), 0; in series [4] (treatment initiated on Day 8), 1; in series [4] (treatment initiated on Day 12), 1; in series [4] (treatment initiated on Day 16) it was 1. Further, the “Ovulation in relation to GnRH: Before” value is 6 in series [4] (Letrozole groups combined); 0 in series [4] (treatment initiated on Day 0); 3 in series [4] (treatment initiated on Day 4); 0 in series [4] (treatment initiated on Day 8); 0 in series [4] (treatment initiated on Day 12); 3 in series [4] (treatment initiated on Day 16). The “Ovulation in relation to GnRH: Synchronized” value in series [4] (Letrozole groups combined) was 39; in series [4] (treatment initiated on Day 0), 10; in series [4] (treatment initiated on Day 4), 7; in series [4] (treatment initiated on Day 8), 7; in series [4] (treatment initiated on Day 12), 10; in series [4] (treatment initiated on Day 16), 5. For the same compound, the “potency relative to anastrozole” value in series [5] is listed as “approximately 11 times”. Moreover, the IC50 in series [1] was 0.07 nM. Also, the “ovulation earlier than controls” value in the series with ovulation [6] came to 24 h. In the series on bovine granulosa cells, the “dose at which estradiol synthesis was reduced to that of non-FSH-stimulated cells” value turned out to be 20 ng/mL. Further, the “concentration of estradiol compared with negative control (no FSH stimulation)” value in the series on bovine granulosa cells is recorded as “did not differ from that of the negative control”. The “estradiol concentrations at device removal compared to respective controls” value is “lower” in the series with plasma estradiol (Group 0 (P=0.02)), “lower” in the series with plasma estradiol (Group 4 (P=0.05)), “tended to be lower” with plasma estradiol (Group 8 (P=0.1)) and “not different from Day 12 controls” in the series on plasma estradiol (Group 12 (P=0.9)). Further, the “estradiol concentration at device removal (average)” value in the series on plasma estradiol (all letrozole-treated groups) amounted to 2.1 ± 0.24 pg/mL.
